Reference: US20240327393A1 (SIRONAX LTD., priority 2021, published 2024)

tested on: HT-1080 (ATCC, CCL-121) cells; assay: HT-1080 cell viability assay with ferroptosis inducer RSL3 (Cell Titer-Glo); assay type: cell-based; details: HT-1080 cells treated with RSL3; 3-fold, 10-point dilution, 1.1 μM highest concentration; Table 3; read-out: EC50 (nM), ferroptosis inhibitory activity
How it was run: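 EC50 was derived by sigmoidal dose-response regression of CellTiter-Glo luminescence viability, expressed relative to untreated wells. Compounds were tested in a ten-point, threefold dilution series (highest 1.1 μM) in the presence of the ferroptosis inducer RSL3. HT-1080 cells had been seeded at 6000 per well and grown overnight first.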

Row | Compound | EC50 [nM]
1 | Cc1cc(N2CCC(C(F)(F)F)CC2)ccc1Nc1ccc2c(c1)CNC2 [Compound 544, N-(2-methyl-4-(4-(trifluoromethyl)piperidin-1-yl)phenyl)isoindolin-5-amine] | 0.1 to 100

same assay, conditions: Homo sapiens; HT-1080 cells treated with RSL3; 3-fold, 10-point dilution, 1.1 μM highest concentration; Table 2; read-out: EC50 (nM), ferroptosis inhibitory activity

Row | Compound | EC50 [nM]
2 | CC(C)(C)c1ccc(Nc2ccc3oc(=O)ccc3c2)cc1 [Compound 120, 6-((4-(tert-butyl)phenyl)amino)-2H-chromen-2-one] | 0.1 to 100
3 | CN1C(=O)COc2cc(Nc3ccc(N4CC(C)(C)OC(C)(C)C4)cc3)ccc21 [Compound 93, 4-methyl-7-((4-(2,2,6,6-tetramethylmorpholino)phenyl)amino)-2H-benzo[b][1,4]oxazin-3(4H)-one] | 0.1 to 100
4 | CN1C(=O)COc2cc(Nc3ccc(N4CCC(C(F)(F)F)CC4)cc3)cnc21 [Compound 75, 4-methyl-7-((4-(4-(trifluoromethyl)piperidin-1-yl)phenyl)amino)-2H-pyrido[3,2-b][1,4]oxazin-3(4H)-one] | 0.1 to 100
5 | CN1Cc2ccc(Nc3ccc(N4CCC(F)(F)CC4)cc3)cc2C1=O [Compound 168, 6-((4-(4,4-difluoropiperidin-1-yl)phenyl)amino)-2-methylisoindolin-1-one] | 0.1 to 100
6 | COc1cc(Nc2ccc3c(c2)OCC(=O)N3)cnc1N1CCC(C(F)(F)F)CC1 [Compound 131, 7-((5-methoxy-6-(4-(trifluoromethyl)piperidin-1-yl)pyridin-3-yl)amino)-2H-benzo[b][1,4]oxazin-3(4H)-one] | 0.1 to 100
7 | CN1C(=O)COc2cc(Nc3ccc(N4CC5CC(C4)O5)c(F)c3)ccc21 [Compound 99, 7-((4-(6-oxa-3-azabicyclo[3.1.1]heptan-3-yl)-3-fluorophenyl)amino)-4-methyl-2H-benzo[b][1,4]oxazin-3(4H)-one] | 0.1 to 100
8 | CN1Cc2cc(Nc3ccc4nccn4c3)ccc2C1=O [Compound 233, 5-(imidazo[1,2-a]pyridin-6-ylamino)-2-methylisoindolin-1-one] | 100 to 1000

same assay, conditions: Homo sapiens; HT-1080 cells treated with RSL3; 3-fold, 10-point dilution, 1.1 μM highest concentration; Table 3; read-out: EC50 (nM), ferroptosis inhibitory activity

Row | Compound | EC50 [nM]
9 | O=C1COc2cc(Nc3ccc(N4CCC(C(F)(F)F)CC4)cc3)cnc2N1 [Compound 450, 7-((4-(4-(trifluoromethyl)piperidin-1-yl)phenyl)amino)-2H-pyrido[3,2-b][1,4]oxazin-3(4H)-one] | 0.1 to 100
10 | CC1CC(c2ccc(Nc3ccc4c(c3)OCC(=O)N4)cc2)CCO1 (stereo not shown) [Compound 479, 7-((4-(2-methyltetrahydro-2H-pyran-4-yl)phenyl)amino)-2H-benzo[b][1,4]oxazin-3(4H)-one] | 0.1 to 100
11 | COc1cc(N2CCC(C(F)(F)F)CC2)ccc1Nc1ccc2c(c1)OCC(=O)N2 [Compound 516, 7-((2-methoxy-4-(4-(trifluoromethyl)piperidin-1-yl)phenyl)amino)-2H-benzo[b][1,4]oxazin-3(4H)-one] | 0.1 to 100
12 | COc1cc(Nc2ccc3c(c2)OCC(=O)N3)c(C)cc1N1CCC(C(F)(F)F)CC1 [Compound 546, 7-((5-methoxy-2-methyl-4-(4-(trifluoromethyl)piperidin-1-yl)phenyl)amino)-2H-benzo[b][1,4]oxazin-3(4H)-one] | 0.1 to 100
13 | Cc1cc(N2CCC(C(F)(F)F)CC2)ccc1Nc1cc(F)c2c(c1)OCC(=O)N2 [Compound 480, 5-fluoro-7-((2-methyl-4-(4-(trifluoromethyl)piperidin-1-yl)phenyl)amino)-2H-benzo[b][1,4]oxazin-3(4H)-one] | 0.1 to 100
14 | O=C1COc2cc(Nc3ccc(N4CCC(C(F)(F)F)CC4)cc3Cl)ccc2N1 [Compound 448, 7-({2-chloro-4-[4-(trifluoromethyl)piperidin-1-yl]phenyl}amino)-2,4-dihydro-1,4-benzoxazin-3-one] | 0.1 to 100
15 | Cc1cc(N2CC(O)(C(F)(F)F)C2)ccc1Nc1ccc2c(c1)OCC(=O)N2 [Compound 632, 7-({4-[3-hydroxy-3-(trifluoromethyl)azetidin-1-yl]-2-methylphenyl}amino)-2,4-dihydro-1,4-benzoxazin-3-one] | 0.1 to 100
16 | Cc1cc(N2CCC(C(F)(F)F)CC2)ccc1Nc1ccc2c(c1)CC(N)C(=O)N2 (stereo not shown) [Compound 598, 3-amino-6-((2-methyl-4-(4-(trifluoromethyl)piperidin-1-yl)phenyl)amino)-3,4-dihydroquinolin-2(1H)-one] | 0.1 to 100
